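Briefly, cells in 96-well plates were exposed to five compound concentrations for 48 h, and endpoints were estimated by linear interpolation. The concentration for full growth arrest is given as TGI.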
Columns and labels:
Test in all cases: growth of human tumour cells (NCI), 48 h
SK-MEL-2 melanoma = tested on: SK-MEL-2 melanoma
SK-MEL-5 melanoma = tested on: SK-MEL-5 melanoma
M14 melanoma = tested on: M14 melanoma
IGROV1 ovarian = tested on: IGROV1 ovarian
NCI-H226 lung = tested on: NCI-H226 lung
SNB-19 CNS = tested on: SNB-19 CNS
MDA-N = tested on: MDA-N
PC-3 prostate = tested on: PC-3 prostate
UACC-257 melanoma = tested on: UACC-257 melanoma
MCF7 breast = tested on: MCF7 breast
SW-620 colon = tested on: SW-620 colon
TK-10 renal = tested on: TK-10 renal
HCT-15 colon = tested on: HCT-15 colon
OVCAR-4 ovarian = tested on: OVCAR-4 ovarian
RXF 393 renal = tested on: RXF 393 renal
SK-MEL-28 melanoma = tested on: SK-MEL-28 melanoma
NCI-H522 lung = tested on: NCI-H522 lung
SF-268 CNS = tested on: SF-268 CNS
SF-295 CNS = tested on: SF-295 CNS
MDA-MB-231 breast = tested on: MDA-MB-231 breast
786-0 renal = tested on: 786-0 renal
LOX IMVI melanoma = tested on: LOX IMVI melanoma
OVCAR-5 ovarian = tested on: OVCAR-5 ovarian
ACHN renal = tested on: ACHN renal
MDA-MB-435 = tested on: MDA-MB-435
BT-549 breast = tested on: BT-549 breast
MALME-3M melanoma = tested on: MALME-3M melanoma
HT29 colon = tested on: HT29 colon
NCI-H23 lung = tested on: NCI-H23 lung
HL-60(TB) leukemia = tested on: HL-60(TB) leukemia
UO-31 renal = tested on: UO-31 renal
NCI/ADR-RES ovarian = tested on: NCI/ADR-RES ovarian
HOP-92 NSCLC = tested on: HOP-92 NSCLC
EKVX NSCLC = tested on: EKVX NSCLC
A549 NSCLC = tested on: A549 NSCLC
SF-539 CNS = tested on: SF-539 CNS
K-562 leukemia = tested on: K-562 leukemia
COLO 205 colon = tested on: COLO 205 colon
T-47D breast = tested on: T-47D breast
CAKI-1 renal = tested on: CAKI-1 renal
U251 CNS = tested on: U251 CNS
HS 578T breast = tested on: HS 578T breast
MOLT-4 leukemia = tested on: MOLT-4 leukemia
HOP-62 NSCLC = tested on: HOP-62 NSCLC
UACC-62 melanoma = tested on: UACC-62 melanoma
KM12 colon = tested on: KM12 colon
A498 renal = tested on: A498 renal
OVCAR-8 ovarian = tested on: OVCAR-8 ovarian
OVCAR-3 ovarian = tested on: OVCAR-3 ovarian
DU-145 prostate = tested on: DU-145 prostate
SN12C renal = tested on: SN12C renal
HCT-116 colon = tested on: HCT-116 colon
RPMI-8226 leukemia = tested on: RPMI-8226 leukemia
CCRF-CEM leukemia = tested on: CCRF-CEM leukemia
HCC-2998 colon = tested on: HCC-2998 colon
SNB-75 CNS = tested on: SNB-75 CNS
SK-OV-3 ovarian = tested on: SK-OV-3 ovarian
NCI-H460 lung = tested on: NCI-H460 lung
SR leukemia = tested on: SR leukemia

## C=CCCC(On1c(-c2ccc(Cl)cc2)csc1=S)c1ccccc1 (centres undefined)
SK-MEL-2 melanoma
  TGI: > 100 µM
SK-MEL-5 melanoma
  TGI: 64.8 µM
M14 melanoma
  TGI: > 100 µM
IGROV1 ovarian
  TGI: > 100 µM
NCI-H226 lung
  TGI: 81.8 µM
SNB-19 CNS
  TGI: > 100 µM
MDA-N
  TGI: 13.4 µM
PC-3 prostate
  TGI: > 100 µM
UACC-257 melanoma
  TGI: > 100 µM
MCF7 breast
  TGI: > 100 µM
SW-620 colon
  TGI: > 100 µM
TK-10 renal
  TGI: > 100 µM
HCT-15 colon
  TGI: > 100 µM
OVCAR-4 ovarian
  TGI: > 100 µM
RXF 393 renal
  TGI: > 100 µM
SK-MEL-28 melanoma
  TGI: > 100 µM
NCI-H522 lung
  TGI: 71.7 µM
SF-268 CNS
  TGI: > 100 µM
SF-295 CNS
  TGI: > 100 µM
MDA-MB-231 breast
  TGI: > 100 µM
786-0 renal
  TGI: > 100 µM
LOX IMVI melanoma
  TGI: > 100 µM
OVCAR-5 ovarian
  TGI: > 100 µM
ACHN renal
  TGI: > 100 µM
MDA-MB-435
  TGI: > 100 µM
BT-549 breast
  TGI: > 100 µM
MALME-3M melanoma
  TGI: 98.4 µM
HT29 colon
  TGI: > 100 µM
NCI-H23 lung
  TGI: > 100 µM
HL-60(TB) leukemia
  TGI: 53.6 µM
UO-31 renal
  TGI: > 100 µM
NCI/ADR-RES ovarian
  TGI: > 100 µM
HOP-92 NSCLC
  TGI: > 100 µM
EKVX NSCLC
  TGI: > 100 µM
A549 NSCLC
  TGI: > 100 µM
SF-539 CNS
  TGI: > 100 µM
K-562 leukemia
  TGI: > 100 µM
COLO 205 colon
  TGI: > 100 µM
T-47D breast
  TGI: > 100 µM
CAKI-1 renal
  TGI: > 100 µM
U251 CNS
  TGI: > 100 µM
HS 578T breast
  TGI: > 100 µM
MOLT-4 leukemia
  TGI: > 100 µM
HOP-62 NSCLC
  TGI: > 100 µM
UACC-62 melanoma
  TGI: > 100 µM
KM12 colon
  TGI: > 100 µM
A498 renal
  TGI: > 100 µM
OVCAR-8 ovarian
  TGI: > 100 µM
OVCAR-3 ovarian
  TGI: > 100 µM
DU-145 prostate
  TGI: > 100 µM
SN12C renal
  TGI: > 100 µM
HCT-116 colon
  TGI: > 100 µM
RPMI-8226 leukemia
  TGI: > 100 µM
CCRF-CEM leukemia
  TGI: > 100 µM

## CCn1c2ccc(C(=O)CCCN(C)C)cc2c2cc(C(=O)CCCN(C)C)ccc21
SK-MEL-2 melanoma
  TGI: 3.97 µM
SK-MEL-5 melanoma
  TGI: 17.1 µM
M14 melanoma
  TGI: 5.1 µM
HCC-2998 colon
  TGI: 6.05 µM
IGROV1 ovarian
  TGI: 4.23 µM
NCI-H226 lung
  TGI: 8.61 µM
SNB-19 CNS
  TGI: 9.31 µM
MDA-N
  TGI: 6.8 µM
PC-3 prostate
  TGI: 5.88 µM
SNB-75 CNS
  TGI: 11.4 µM
UACC-257 melanoma
  TGI: 14 µM
MCF7 breast
  TGI: 13.1 µM
SW-620 colon
  TGI: 3.76 µM
TK-10 renal
  TGI: 13.2 µM
HCT-15 colon
  TGI: 8.92 µM
OVCAR-4 ovarian
  TGI: 4.17 µM
RXF 393 renal
  TGI: 4.3 µM
SK-MEL-28 melanoma
  TGI: 18.3 µM
NCI-H522 lung
  TGI: 8.68 µM
SF-268 CNS
  TGI: 6.62 µM
SF-295 CNS
  TGI: 14.5 µM
MDA-MB-231 breast
  TGI: 3.37 µM
786-0 renal
  TGI: 2.82 µM
LOX IMVI melanoma
  TGI: 4.76 µM
OVCAR-5 ovarian
  TGI: 9.34 µM
ACHN renal
  TGI: 6.06 µM
MDA-MB-435
  TGI: 2.82 µM
BT-549 breast
  TGI: 12.4 µM
MALME-3M melanoma
  TGI: 11 µM
HT29 colon
  TGI: 4.24 µM
NCI-H23 lung
  TGI: 4.29 µM
HL-60(TB) leukemia
  TGI: 3.78 µM
UO-31 renal
  TGI: 12.8 µM
NCI/ADR-RES ovarian
  TGI: 21.9 µM
HOP-92 NSCLC
  TGI: 9.24 µM
EKVX NSCLC
  TGI: 6.79 µM
A549 NSCLC
  TGI: 3.27 µM
SF-539 CNS
  TGI: 2.79 µM
K-562 leukemia
  TGI: 32.3 µM
SK-OV-3 ovarian
  TGI: 22.1 µM
COLO 205 colon
  TGI: 6.92 µM
T-47D breast
  TGI: 33.5 µM
CAKI-1 renal
  TGI: 7.42 µM
U251 CNS
  TGI: 8.46 µM
HS 578T breast
  TGI: 6.35 µM
MOLT-4 leukemia
  TGI: > 100 µM
HOP-62 NSCLC
  TGI: 3.48 µM
NCI-H460 lung
  TGI: 2.61 µM
UACC-62 melanoma
  TGI: 20.8 µM
KM12 colon
  TGI: 11.2 µM
A498 renal
  TGI: 4.51 µM
OVCAR-8 ovarian
  TGI: 7.59 µM
OVCAR-3 ovarian
  TGI: 6.72 µM
DU-145 prostate
  TGI: 8.34 µM
SN12C renal
  TGI: 5.87 µM
HCT-116 colon
  TGI: 11.6 µM
CCRF-CEM leukemia
  TGI: 10.1 µM

## COc1ccc(-c2nnc(CCCCCCCCc3nnc(-c4ccc(OC)cc4)n3N)n2N)cc1
SK-MEL-2 melanoma
  TGI: > 100 µM
SK-MEL-5 melanoma
  TGI: > 100 µM
M14 melanoma
  TGI: > 100 µM
HCC-2998 colon
  TGI: > 100 µM
IGROV1 ovarian
  TGI: > 100 µM
NCI-H226 lung
  TGI: > 100 µM
SNB-19 CNS
  TGI: > 100 µM
MDA-N
  TGI: > 100 µM
PC-3 prostate
  TGI: > 100 µM
SNB-75 CNS
  TGI: > 66.4 µM
UACC-257 melanoma
  TGI: > 100 µM
MCF7 breast
  TGI: > 100 µM
SW-620 colon
  TGI: > 100 µM
TK-10 renal
  TGI: > 100 µM
HCT-15 colon
  TGI: > 100 µM
OVCAR-4 ovarian
  TGI: > 100 µM
SK-MEL-28 melanoma
  TGI: > 100 µM
NCI-H522 lung
  TGI: > 100 µM
SF-268 CNS
  TGI: > 100 µM
SF-295 CNS
  TGI: > 100 µM
MDA-MB-231 breast
  TGI: > 100 µM
786-0 renal
  TGI: > 31.6 µM
LOX IMVI melanoma
  TGI: > 100 µM
OVCAR-5 ovarian
  TGI: > 100 µM
ACHN renal
  TGI: > 100 µM
MDA-MB-435
  TGI: > 100 µM
BT-549 breast
  TGI: > 100 µM
MALME-3M melanoma
  TGI: > 100 µM
HT29 colon
  TGI: > 100 µM
NCI-H23 lung
  TGI: > 100 µM
HL-60(TB) leukemia
  TGI: > 100 µM
UO-31 renal
  TGI: > 100 µM
NCI/ADR-RES ovarian
  TGI: > 31.6 µM
SR leukemia
  TGI: > 100 µM
HOP-92 NSCLC
  TGI: > 69.1 µM
EKVX NSCLC
  TGI: > 100 µM
A549 NSCLC
  TGI: > 100 µM
SF-539 CNS
  TGI: > 100 µM
K-562 leukemia
  TGI: > 100 µM
SK-OV-3 ovarian
  TGI: > 100 µM
COLO 205 colon
  TGI: > 100 µM
T-47D breast
  TGI: > 100 µM
CAKI-1 renal
  TGI: > 100 µM
U251 CNS
  TGI: > 100 µM
HS 578T breast
  TGI: > 100 µM
MOLT-4 leukemia
  TGI: > 100 µM
HOP-62 NSCLC
  TGI: 65.8 µM
NCI-H460 lung
  TGI: > 100 µM
UACC-62 melanoma
  TGI: > 100 µM
KM12 colon
  TGI: > 100 µM
A498 renal
  TGI: > 100 µM
OVCAR-8 ovarian
  TGI: > 31.6 µM
OVCAR-3 ovarian
  TGI: > 100 µM
DU-145 prostate
  TGI: > 100 µM
SN12C renal
  TGI: > 100 µM
HCT-116 colon
  TGI: > 100 µM
RPMI-8226 leukemia
  TGI: > 100 µM
CCRF-CEM leukemia
  TGI: > 100 µM
